The results in this text go back to patent publication US4794079A, “Determination of hydrogen peroxide using fluorogenic dihydroquinolone and dihydrocoumarin indicators” (Miles Inc., priority 1985, dated 1988).

The target of the experiment is T1, horseradish peroxidase (Armoracia rusticana, UniProt P00433).
T1 sequence (P00433 31-353): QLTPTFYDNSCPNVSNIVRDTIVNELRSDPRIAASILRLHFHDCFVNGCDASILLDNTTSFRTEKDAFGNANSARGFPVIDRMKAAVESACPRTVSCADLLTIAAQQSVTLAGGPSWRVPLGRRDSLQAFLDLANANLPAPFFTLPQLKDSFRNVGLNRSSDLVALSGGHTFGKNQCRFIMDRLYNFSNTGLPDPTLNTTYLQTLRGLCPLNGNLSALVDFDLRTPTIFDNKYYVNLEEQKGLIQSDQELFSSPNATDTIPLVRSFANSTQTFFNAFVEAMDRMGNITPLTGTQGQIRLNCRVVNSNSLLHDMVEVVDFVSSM
The experiment in a line: Detection of hydrogen peroxide: fluorescence of indicator compounds after adding horseradish peroxidase and hydrogen peroxide. The format is biochemical. Conditions: 1.0 μM compound; for Relative Fluorescence of Indicator Compounds, Fluorescence Units, 0 secs: sodium phosphate buffer pH 7.0 or 7.5, 37° C., nM of fluorescent standard 7-hydroxy-3-(N-ethylcarboxamido)coumarin giving the same light output. How it is done: A 1.0 μM, pH 7.0 or 7.5, sodium phosphate buffer solution of the dihydroquinolones and dihydrocoumarins listed in the Table below were prepared by successive dilutions with the buffer of an ethanol or DMF-ethanol solution of the appropriate compound. The solution was warmed in a 37° C. bath, then a 40 microliter (μL) of 1 mg/mL horseradish peroxidase enzyme was added in one portion. The contents of the cuvette were mixed and the fluorescence was monitored for at least 50 seconds (the quartz cell and its contents were held at a constant 37° C.). A quantity of hydrogen peroxide diluted in cold water and stored at 0° for less than eight hours was then added in an amount suitable for the desired ratio of dihydroquinolone to peroxide. The fluorescence was then monitored over a 600 second time span. Fluorescent values for compounds (5), (6), (7), (11), (16), and (17) were reported in units of concentration (nM) of the flourescent standard 7 -hydroxy-3-(N-ethylcarboxamido) coumarin (U.S. Pat. No. 4,273,715) which would be required to achieve the same fluorescence light output as the subject of study. Compound (8) is reported in photons/second. All slit widths were set at 2 nm (nanometers).
Fluorescence was measured in quartz cuvettes on an SLM 8000 spectrofluorometer (SLM Instruments, Inc. Urbana, Ill.). A Hewlett-Packard8915A computer was used to process spectra.

[1] abbreviates: 25 secs, pH 7.0 or 7.5, 37° C., nM of fluorescent standard equivalent.
[2] abbreviates: 100 secs, pH 7.0 or 7.5, 37° C., nM of fluorescent standard equivalent.
Where [3] appears, read: 200 secs, pH 7.0 or 7.5, 37° C., nM of fluorescent standard equivalent.
The mark [4] stands for this setting: 600 secs, pH 7.0 or 7.5, 37° C., nM of fluorescent standard equivalent.

Turning to `CCOC(=O)C1Cc2ccc(N(C)C)cc2NC1=O` (stereo not shown) [Compound 5, 7-Dimethylamino-3-carbethoxy-3,4-dihydro-2-quinolone], the “Relative Fluorescence of Indicator Compounds, Fluorescence Units, 0 secs” value (0 secs) is recorded as 1.4 nM. Moreover, under setting [1], the “Relative Fluorescence of Indicator Compounds, Fluorescence Units, 25 secs” value (shortened to “Relative Fluorescence … 25 secs”) was determined as 81.5 nM. Further, the “Relative Fluorescence of Indicator Compounds, Fluorescence Units, 100 secs” value (“Relative Fluorescence … 100 secs” below) under setting [2] was 101.5 nM. Moreover, the “Relative Fluorescence of Indicator Compounds, Fluorescence Units, 200 secs” value (shortened to “Relative Fluorescence … 200 secs”) under setting [3] is 101.5 nM. The “Relative Fluorescence of Indicator Compounds, Fluorescence Units, 600 secs” value (“Relative Fluorescence … 600 secs” for short) under setting [4] is given as 101.25 nM.

With `CCOC(=O)C1Cc2ccc(NC)cc2NC1=O` (stereo not shown) [Compound 6, 7-Methylamino-3-carbethoxy-3,4-dihydro-2-quinolone], the “Relative Fluorescence of Indicator Compounds, Fluorescence Units, 0 secs” value (0 secs) is given as less than 0.12 nM. The “Relative Fluorescence … 25 secs” value under setting [1] was found to be 4.0 nM. For the same molecule, the “Relative Fluorescence of Indicator Compounds, Fluorescence Units, 50 secs” value (50 secs, pH 7.0 or 7.5, 37° C., nM of fluorescent standard equivalent) is 8.75 nM. Under setting [2], the “Relative Fluorescence … 100 secs” value is reported as 11.0 nM. In addition, under setting [3], the “Relative Fluorescence … 200 secs” value was 11.25 nM. Further, the “Relative Fluorescence … 600 secs” value under setting [4] worked out at 10.8 nM.

For `CN(C)c1ccc2c(c1)NC(=O)C(C(=O)[O-])C2.[K+]` (stereo not shown) [Compound 7, 7-Dimethylamino-3-carboxy-3,4-dihydro-2-quinolone potassium salt], for the setting “0 secs”, the “Relative Fluorescence of Indicator Compounds, Fluorescence Units, 0 secs” value is reported as 1.4 nM. Under setting [1], the “Relative Fluorescence … 25 secs” value stood at 12.3 nM. Moreover, under setting [2], the “Relative Fluorescence … 100 secs” value stood at 22.2 nM. In addition, under setting [3], the “Relative Fluorescence … 200 secs” value was determined as 24.3 nM. In addition, the “Relative Fluorescence … 600 secs” value under setting [4] is 24.6 nM.

For the molecule `CCNC(=O)C1Cc2ccc(N(C)C)cc2NC1=O` (stereo not shown) [Compound 8, 7-Dimethylamino-3-(N-ethylcarboxamido)-3,4-dihydro-2-quinolone], the “Fluorescence Units, 0 secs” value (0 secs, pH 7.0 or 7.5, 37° C., excitation 400 nm, emission 450 nm) is less than 428 photons/second. Also, the “Fluorescence Units, 25 secs” value (25 secs, pH 7.0 or 7.5, 37° C., excitation 400 nm, emission 450 nm) is 20,142 photons/second. Besides, under “50 secs, pH 7.0 or 7.5, 37° C., excitation 400 nm, emission 450 nm”, the “Fluorescence Units, 50 secs” value was 27,000 photons/second. For the setting “100 secs, pH 7.0 or 7.5, 37° C., excitation 400 nm, emission 450 nm”, the “Fluorescence Units, 100 secs” value is on record as 29,000 photons/second. Moreover, for the setting “200 secs, pH 7.0 or 7.5, 37° C., excitation 400 nm, emission 450 nm”, the “Fluorescence Units, 200 secs” value is given as 30,000 photons/second. In addition, the “Fluorescence Units, 600 secs” value (600 secs, pH 7.0 or 7.5, 37° C., excitation 400 nm, emission 450 nm) is recorded as 30,000 photons/second.

Consider `CCNC(=O)C1Cc2ccc(N(C)C)cc2N(C)C1=O` (stereo not shown) [Compound 11, 7-Dimethylamino-3-(N-ethylcarboxamido)-3,4-dihydro-1-methyl-2-quinolone], for which the “Relative Fluorescence of Indicator Compounds, Fluorescence Units, 0 secs” value (0 secs) is reported as 4.3 nM. For the same molecule, the “Relative Fluorescence … 25 secs” value under setting [1] was found to be 8.9 nM. The “Relative Fluorescence … 100 secs” value under setting [2] was 101.5 nM. Moreover, the “Relative Fluorescence … 200 secs” value under setting [3] was found to be 133.5 nM. Moreover, the “Relative Fluorescence … 600 secs” value under setting [4] was determined as 142.5 nM.

On to `CCOC(=O)C1Cc2ccc(O)cc2N(C)C1=O` (stereo not shown) [Compound 16, 7-Hydroxy-3-carbethoxy-3,4-dihydro-1-methyl-2-quinolone], for which the “Relative Fluorescence of Indicator Compounds, Fluorescence Units, 0 secs” value (0 secs) is 1.3 nM. Besides, the “Relative Fluorescence … 25 secs” value under setting [1] is 4.3 nM. Moreover, the “Relative Fluorescence … 100 secs” value under setting [2] amounted to 5.7 nM. Further, the “Relative Fluorescence … 200 secs” value under setting [3] amounted to 6.3 nM. Also, under setting [4], the “Relative Fluorescence … 600 secs” value was found to be 6.3 nM.

Regarding `CCOC(=O)C1Cc2cc3c4c(c2OC1=O)CCCN4CCC3` (stereo not shown) [Compound 17, [2,3,6,7,9,10]-Hexahydro-10-carbethoxy-11-oxo-1H,5H,11H-[1]benzopyran[6,7,8-ij]quinolizine], the “Relative Fluorescence of Indicator Compounds, Fluorescence Units, 0 secs” value (0 secs) was 0.6 nM. The “Relative Fluorescence … 25 secs” value under setting [1] is 8.8 nM. Further, the “Relative Fluorescence … 100 secs” value under setting [2] is on record as 13.0 nM. Besides, the “Relative Fluorescence … 200 secs” value under setting [3] was determined as 25.9 nM. Besides, the “Relative Fluorescence … 600 secs” value under setting [4] came to 42.5 nM.
